Source: PubChem BioAssay AID1159557 (GlaxoSmithKline (GSK), 2015)
Activity calls are given as the source filed them. How the calls were made is not given here.

The compounds below were run on Trypanosoma brucei growth inhibition (assay: trypanosome proliferation inhibitors (AID 1159557);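 further: parasites exposed to compound for 48 h before the resazurin readout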).

| SMILES | IC50 |
| --- | --- |
| Nc1ncnc2c1ncn2[C@@H]1O[C@H](CO)C[C@H]1O | 13 nM |
| O=C(NCC(c1cccs1)N1CCOCC1)c1ccc([N+](=O)[O-])o1 (stereo not given) | 320 nM |
| COc1ccc2ncc(F)c(NC(=O)C3(O)CCC(NCc4ccc5c(c4)OCCO5)CC3)c2n1 (stereo not given) | 790 nM |
| CC(C)N(C(=O)CN1C(=O)C(N)C(=O)N(c2ccccc2)c2ccccc21)c1ccccc1 (stereo not given) | > 40000 nM (inactive) |
| O=C1NCc2cccc(Nc3nc(NC4CCC(O)CC4)ncc3Br)c21 (stereo not given) | 63 nM |
| O=C(Nc1ccc(C(F)(F)F)cc1)NC1(C(=O)NCc2ccco2)CCCCC1 | 790 nM |
| Cc1sc(C)c(C(F)(F)F)c1CNCCCNc1cc(=O)c2ccccc2[nH]1 | 10 nM |
| Cc1ccc(S(=O)(=O)Cn2nnnc2C(c2cccnc2)N2CCN(c3ccccc3)CC2)cc1 (stereo not given) | 32000 nM |
| Cc1nn(-c2nc3ccccc3s2)c2c1C(c1ccc(OCC(N)=O)cc1)SCC(=O)N2 (stereo not given) | 20 nM |
| Cc1[nH]nc(C(F)(F)F)c1NC(=O)CCn1cc(Cl)c([N+](=O)[O-])n1 | 500 nM |
| CC(C)CC(=O)Nc1cc(C2CC2)nn1-c1nc2c(c(=O)[nH]1)CCCC2 | 200 nM |
| OC1CCC(Nc2nccc(-c3sc(C4CCOCC4)nc3-c3ccc(F)c(F)c3)n2)CC1 (stereo not given) | 2000 nM |
| CS(=O)(=O)N1CCC(Nc2ncc(Br)c(Nc3cccc(F)c3C(N)=O)n2)CC1 | 10 nM |
| O=C(NCc1ccc(Cl)cc1)C1CN(C(=O)c2ccc(F)cc2)CCS1 (stereo not given) | 790 nM |
| CCOc1cnn(C)c(=O)c1Nc1ccc(C(=O)NCc2ccc(F)cc2)cc1 | > 40000 nM (inactive) |
| CCN(CC)S(=O)(=O)c1ccc(OC)c(NC(=O)c2ccc([N+](=O)[O-])s2)c1 | 400 nM |
| CCOc1cc(NCCCN2CCN(C)CC2)c2ncccc2c1 | 13000 nM |
| CC(C)n1c(-c2nonc2N)nc2cccc(OCCN3CCCC3)c21 | 790 nM |
| Cc1nc(-c2nc(NCc3ccc(Cl)cc3)c3cccnc3c2O)n[nH]1 | 630 nM |
| COc1cccc(CN(C)Cc2nc(N)c3c(C)c(C)sc3n2)c1 | 5000 nM |
| COc1ccc(NS(=O)(=O)c2cc(-c3cc(C)[nH]n3)ccc2C)cc1OC | 320 nM |

| SMILES | IC50 |
| --- | --- |
| O=[N+]([O-])c1ccc(C2=CC(c3ccccc3)=NCCN2)cc1 | 6300 nM |
| COc1ccc(Nc2nccc(N(C)c3n[nH]c4c(F)cccc34)n2)cc1S(C)(=O)=O | 6300 nM |
| Cn1ccnc1CN1CCc2[nH]cnc2C1c1ccccc1OCc1ccccc1 (stereo not given) | 400 nM |
| O=C(c1cnn(-c2ccccc2)n1)N1CCCC(n2ccnc2)C1 (stereo not given) | > 40000 nM (inactive) |
| Cc1cc(Nc2ccc(C#N)c(Cl)c2C)n[nH]1 | 7.9 nM |
| O=C1OCc2ccc(Nc3nccc(-c4cnn5ncccc45)n3)cc21 | 4 nM |
| c1ccc(CCNCc2cncc3nc(-c4cnccn4)n(C4CCCCC4)c23)cc1 | 32000 nM |
| Cc1nc2nc(C)c(Cc3ccc(C(C)C)cc3)c(=O)n2[nH]1 | > 40000 nM (inactive) |
| CCN(CC)c1ccc(S(=O)(=O)N(CC)CC)c2nonc12 | 25000 nM |
| CNc1nc(C)nc(N2CCc3cc(C(=O)NCc4ccc(-c5ccn[nH]5)cc4Cl)ccc32)n1 | 13000 nM |
| O=C(NCCc1ccn(-c2ccccc2)n1)C1CCCCC1 | 250 nM |
| CN(Cc1ccc(F)cc1)c1ccc(OCC(=O)N2CCCCC2c2cccnc2)nn1 (stereo not given) | > 40000 nM (inactive) |
| COc1cccc(NS(=O)(=O)c2ccc3[nH]cc(C(=O)NCCC(C)C)c(=O)c3c2)c1 | 320 nM |
| COc1ccc(CN2C(=O)C(O)(CC(=O)c3ccncc3)c3cc(Br)ccc32)cc1OC (stereo not given) | 630 nM |
| CCC(CC)C(=O)Nc1ccc(-c2nnc(-c3ccc(OC)cc3)o2)cc1 | 500 nM |
| CS(=O)(=O)NC1CCC(Oc2cc3cnccc3cc2-c2ccsc2)CC1 (stereo not given) | 16000 nM |
| O=C(c1ccc(Cl)cc1)c1ccc(OC(=O)N2CCOCC2)cc1 | 7900 nM |
| COc1cccc(-c2cc(C(F)(F)F)nc(-n3ccc([N+](=O)[O-])n3)n2)c1 | 32000 nM |
| Cc1ccc2sc(NC(=O)Cn3cnc([N+](=O)[O-])n3)nc2c1 | 25000 nM |
| CCCCNc1nccc(-c2c(-c3ccc(F)cc3)nn3c(N4CCOCC4)cccc23)n1 | 10000 nM |
| Cc1cc(N(C)C)nc2ccc(Cc3cnc(N)nc3N)cc12 | 5000 nM |

| SMILES | IC50 |
| --- | --- |
| O=C(COc1ncnc2cc([N+](=O)[O-])ccc12)NC(=O)NC1CCCCC1 | 6300 nM |
| COc1ccc(CNc2nsc3ccccc23)cc1OC | 7900 nM |
| Cn1nc(C(=O)N2CCc3ccccc32)c2c1CCS(=O)(=O)C2 | 4000 nM |
| CC(C)COC(=O)Nc1ccc(N2CCC(CNS(=O)(=O)c3ccccc3)CC2)c(F)c1 | 2500 nM |
| CC(C)Oc1ccc(C(=O)Nc2ccc(N3CCOCC3)c(Cl)c2)cc1 | 13000 nM |
| Cc1nnnn1-c1cccc(C(=O)N2CCC[C@@]3(C)c4ncncc4CCC23)c1 (stereo not given in full) | > 40000 nM (inactive) |
| COc1ccccc1-c1c(C)[nH]c2nc(N)nc(C)c12 | 25000 nM |
| Cc1cccc(N2CCCN(Cc3c[nH]c4ccccc34)CC2)n1 | 13000 nM |
| CN(C)Cc1ccc(-c2ccc(S(=O)(=O)NCC3CCCO3)c(F)c2)cc1 (stereo not given) | 25000 nM |
| NCc1ccc2c(Cl)cc(Cl)c(O)c2n1 | 400 nM |
| CCCc1cc(C(=O)Nc2ncc(-c3cccc(Br)c3)n2C)n[nH]1 | 2500 nM |
| CCC(=O)N1N=C(c2ccc3c(c2)CCCC3)Sc2c1ncn2C(=O)CC | 16000 nM |
| O=c1[nH]c(NCCCNCc2cc(Br)cc(Br)c2)nc2ccsc12 | 100 nM |
| CN(Cc1ccc(C(N)=O)cc1)C(c1ccc(F)cc1)c1cccnc1 (stereo not given) | > 40000 nM (inactive) |
| CC1(C)CCC(=Cc2ccc(Cl)cc2)CC1(O)Cn1ccnc1 (stereo not given) | 10000 nM |
| CC(CNS(=O)(=O)c1ccc(OC(F)F)cc1)c1ccc(NC(=O)c2ccncc2)cc1 (stereo not given) | 7900 nM |
| CC1CCCCN1C(=O)NCCc1coc(-c2ccc(F)cc2)n1 (stereo not given) | 130 nM |
| CS(=O)(=O)c1cccc(-c2cnc(N)c3c(-c4ccc(CO)cc4)csc23)c1 | 2000 nM |
| CC1CN(S(=O)(=O)c2ccc(NC(=O)c3cc(C4CC4)nc4c3cnn4C(C)C)cc2)CC(C)O1 (stereo not given) | 6300 nM |

Now from value to compound:

| IC50 | SMILES |
| --- | --- |
| 16 nM | COc1ccc(OC)c(NC(=O)c2ccc([N+](=O)[O-])o2)c1 |
| 2000 nM | O=C(Nc1ccc(C(F)(F)F)cc1)Nc1cccc([N+](=O)[O-])c1 |
| 400 nM | CN1C(=O)c2ccccc2Sc2ccc(NC(=O)NCc3ccco3)cc21 |
| > 40000 nM (inactive) | c1ccc(-c2nc(NCc3ccco3)c3ccccc3n2)nc1 |
| 25000 nM | c1ccc(CNc2cccc3ccncc23)cc1 |
| 790 nM | Cc1ccc(S(C)(=O)=O)cc1Nc1nccc(-c2sc(N)nc2-c2ccccc2)n1 |
| 63 nM | CNS(=O)(=O)c1ccccc1Nc1nc(Nc2ccnn2C)ncc1Cl |
| 1000 nM | Nc1nc(-c2ccccn2)nc(-n2nc(-c3ccccc3)cc2N)n1 |
| 2000 nM | Cn1ccnc1-c1nc(NCc2ccccc2Cl)cc(C2CC2)n1 |
| 320 nM | O=C(NCc1nnc2n1CCCCC2)c1csc(-c2ccccc2)n1 |
| 790 nM | Oc1c(-c2n[nH]c(CCc3ccccc3)n2)ncc2cccnc12 |
| 500 nM | COc1cc(Cl)c(C)cc1NC(=O)c1ccc([N+](=O)[O-])s1 |
| > 40000 nM (inactive) | O=C(CSc1ccc(F)cc1)N[C@@H](Cc1cnc[nH]1)C(=O)NCCc1ccccc1 |
| 16000 nM | COc1ccc(Cl)cc1CC(=O)Nc1n[nH]c(-c2ccccn2)n1 |
| 20000 nM | CCCC(=O)N(Cc1ccccn1)c1nc2ccccc2s1 |
| 3200 nM | CC1=C(C(=O)Nc2ccc(Cl)cc2)C(c2ccncc2)n2ncc(C(=O)Nc3ccccc3)c2N1 (stereo not given) |
| 16000 nM | NC(=O)c1cc(NC(=O)c2ccccc2COc2ccccc2)ccc1Cl |
| 400 nM | Cc1occc1C(=O)Nc1ccccc1C(=O)Nc1nccs1 |
| 500 nM | CN(CC1CCCO1)S(=O)(=O)c1ccc(C(=O)Nc2nc(-c3ccccn3)cs2)cc1 (stereo not given) |
| 320 nM | Cc1ccccc1NS(=O)(=O)c1ccc2[nH]cc(C(=O)NC3CCCC3)c(=O)c2c1 |
| 5000 nM | CCS(=O)(=O)Nc1ccc(C2=NN(C(=O)c3cccs3)C(c3ccccc3OC)C2)cc1 (stereo not given) |
| 160 nM | CS(=O)(=O)c1ccc(Nc2nccc(-c3cnn4ncccc34)n2)cc1 |
| 63 nM | N#Cc1cnc(Nc2cccc(CCN3CCOCC3)c2)nc1Nc1ccccc1C(N)=O |
| 20000 nM | CCC(=O)Nc1ccc(C(=O)Nc2ccccc2-c2ccccc2)cc1 |
| > 40000 nM (inactive) | O=C(N1CCc2ccccc2CC1)C1(C(=O)N2CCC(n3c(=O)[nH]c4ncccc43)CC2)CC1 |

| IC50 | SMILES |
| --- | --- |
| 16000 nM | O=C(c1cccc(Cl)c1Cl)N1CCn2c1nc(-c1ccncc1)cc2=O |
| 630 nM | CCOC(=O)c1noc(N)c1-c1ccccc1 |
| 790 nM | O=c1cc(CSc2ccc(Cl)cc2)nc(-c2ccccn2)[nH]1 |
| 1300 nM | COc1ccc(-c2nc3ncccc3o2)cc1NC(=O)c1cccs1 |
| 3200 nM | Cc1nc2c(-c3ncn[nH]3)cc(NC(=O)Cc3ccccc3)cn2c1C |
| 1000 nM | N#CN1CC[C@@H](NC(=O)Nc2ccccc2Oc2ccccc2)C1 |
| 400 nM | O=C(NCCc1csc(-c2ccc(F)cc2)n1)c1ccco1 |
| 20000 nM | CNc1cc(C)nc(C2CN(C(=O)c3n[nH]c4ccccc34)CCO2)c1 (stereo not given) |
| 630 nM | O=C(CC1(O)C(=O)N(Cc2ccccc2)c2ccc(Br)cc21)c1cccnc1 (stereo not given) |
| 7900 nM | Cc1ccc(NC(=O)c2ccc(Cl)c(NC(=O)c3ccc([N+](=O)[O-])cc3)c2)cc1 |
| 6300 nM | CCC(=O)Nc1ccc(-c2nc3ccc(Cl)cc3[nH]2)cc1 |
| 13000 nM | CCNc1cc(-c2ccccn2)nc(Nc2ccc(OC)cc2)n1 |
| 4000 nM | Cc1ccc2c(c1)SC(C(=O)Nc1n[nH]c(-c3ccccn3)n1)C2 (stereo not given) |
| 630 nM | CC(=O)Nc1ccc(-c2ccnc(Nc3cccc(C#N)c3)n2)cc1 |
| > 40000 nM (inactive) | O=C(COc1nn(-c2ccccc2)c2ncccc12)NCc1ccccc1 |
| 250 nM | O=C(Nc1nc(-c2ccc(F)cc2)cs1)c1ccc([N+](=O)[O-])s1 |
| 1000 nM | c1ccc2sc(Nc3nc4ncccc4[nH]3)nc2c1 |
| 790 nM | COc1ccc(S(=O)(=O)Nc2ccc(C(=O)Nc3nc(-c4ccccn4)cs3)cc2)cc1 |
| 320 nM | Cc1cc(NC(=O)c2ccc([N+](=O)[O-])s2)ccc1Br |
| 630 nM | COc1ccc(C2CC(c3ccccc3Cl)=NN2C(=O)CNC(=O)C2CCCC2)cc1 (stereo not given) |
| 500 nM | CCS(=O)(=O)c1cccc(C(=O)Nc2nc(-c3ccccn3)cs2)c1 |
| 630 nM | O=C(CC1(O)C(=O)N(Cc2cccs2)c2ccc(Br)cc21)c1cccnc1 (stereo not given) |
| > 40000 nM (inactive) | O=C(Nc1nc2ccccc2[nH]1)c1ccc2nc[nH]c2c1 |
| 25000 nM | Fc1ccc(Nc2nc(-c3ccccn3)cs2)cc1 |
